Test results taken from PMC8571951, “An activity‐based bioprobe differentiates a novel small molecule inhibitor from a LOXL2 antibody and provides renewed promise for anti‐fibrotic therapeutic strategies” (Clinical and Translational Medicine, 2021).

Legend:
Oral bioavailability = conditions: in vivo
LOXL2 = molecular target: T1, LOXL2 (Homo sapiens, UniProt Q9Y4K0); experiment: Phase 1 study, LOXL2 activity in plasma after single oral dose (PXS-5878/Simoa); assay type: in vivo; design: from tissue; host or cells: human plasma (activity) and human serum (protein concentration) from clinical trial subjects; conditions: for Inhibition of LOXL2 activity: healthy humans
T1 sequence (Q9Y4K0 26-774): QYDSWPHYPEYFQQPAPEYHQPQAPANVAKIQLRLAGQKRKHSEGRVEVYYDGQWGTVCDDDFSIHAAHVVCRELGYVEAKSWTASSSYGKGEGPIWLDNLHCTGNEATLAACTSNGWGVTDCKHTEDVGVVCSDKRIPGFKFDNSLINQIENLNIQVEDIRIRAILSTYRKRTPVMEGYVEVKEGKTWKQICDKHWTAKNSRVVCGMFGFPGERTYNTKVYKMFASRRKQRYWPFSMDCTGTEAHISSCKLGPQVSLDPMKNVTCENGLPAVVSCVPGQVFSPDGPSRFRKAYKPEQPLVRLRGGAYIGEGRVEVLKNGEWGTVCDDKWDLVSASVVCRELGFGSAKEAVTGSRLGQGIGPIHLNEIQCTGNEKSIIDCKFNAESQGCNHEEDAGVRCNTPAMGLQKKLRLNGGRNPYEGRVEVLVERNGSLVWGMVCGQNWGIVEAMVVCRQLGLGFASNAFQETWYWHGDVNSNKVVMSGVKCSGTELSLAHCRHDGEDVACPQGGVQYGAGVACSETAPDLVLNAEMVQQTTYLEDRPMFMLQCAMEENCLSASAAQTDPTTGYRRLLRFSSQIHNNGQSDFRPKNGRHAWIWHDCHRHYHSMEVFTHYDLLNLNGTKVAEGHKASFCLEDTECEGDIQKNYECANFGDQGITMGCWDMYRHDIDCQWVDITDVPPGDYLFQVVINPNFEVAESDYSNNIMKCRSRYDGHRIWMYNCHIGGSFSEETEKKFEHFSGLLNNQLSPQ
Experimental: To confirm the therapeutic potential of the anti‐fibrotic PXS‐5338 (Figure S5) in humans, LOXL2 inhibition after oral administration was examined in a phase 1 study. […] This underscored the fast resynthesis of LOXL2 in humans, similar to that seen in rodents, with ca. 80% of enzyme activity returning within 24 h.
FIGURE 3 Inhibition of human lysyl oxidase‐like 2 (LOXL2) enzymatic activity by PXS‐5338 in clinical trials. (A) LOXL2 protein concentration in human serum is fairly constant over 24 h. Protein concentrations normalised to pre‐dose levels are plotted over time in healthy subjects treated with different doses (placebo, 100, 200 and 400 mg) of PXS‐5338. Mean ± SD with n = 6/time point. Phase 1 study with healthy male volunteers, ANZCTR ACTRN12617001444370. Legend of (A) also applies to (B) and (C). (B) Dose‐dependent inhibition of LOXL2 in plasma following a single oral dose of 100, 200 mg or 400 mg PXS‐5338. PXS‐5878/Simoa® platform used to measure the residual activity. Mean ± SD with n = 6/time point. (C) Pharmacokinetic (PK) profile of PXS‐5338 in healthy human males. […] (D) Correlation between LOXL2 protein concentration versus % inhibition. Activity data normalised to pre‐dose value.
The platform consists of an activity-based probe (ABP) for the detection of enzyme activity in conjunction with the Simoa^TM (single molecule array) bead technology to isolate the protein. This platform has enabled accurate measurement of total protein and enzymatic activity of LOXL2 from small volumes of serum, plasma and tissue.
In the immunoassay, paramagnetic capture beads are coated with a LOXL2 capture antibody (AF2639). 100 µL of pre-diluted (4-fold) sample in buffer (0.5% Casein, 0.25% Tween-20 in PBS) is combined in a cuvette with the capture beads (25 µL for protein content at 1.6 x 10^7 beads/mL; 100 µL for enzyme activity at 4 x 10^6 beads/mL). The biotinylated detector agent [either a second anti-LOXL2 antibody (AB213598) for protein content or the ABP (PXS-5878) for enzyme activity) is then added during the same incubation with intermittent shaking at room temperature (35 minutes for protein content or 54 minutes for enzyme activity).
Target molecules present in the sample are captured by the antibody coated beads and bound with the detector agent simultaneously. After incubation, beads are pelleted by magnetic separation, excess sample/buffer and reagents aspirated off and beads resuspended in wash buffer to remove unbound proteins and excess reagents.
Following protein capture and incubation with the detector, a conjugate of streptavidin-β-galactosidase (SβG; 100 µL at 300 - 350 pM) is mixed with the beads and incubated (5 minutes with intermittent shaking at room temperature). SβG binds to the biotinylated detector agent, resulting in enzyme-labelling of captured LOXL2. Following a final wash, the beads are resuspended in a resorufin-β-D-galactopyranoside (RGP) substrate solution and transferred to a Simoa^TM Disc (containing a microarray to separate beads into individual microwells). After settling into the microarray via gravity, beads are then sealed in microwells with oil. If LOXL2 is captured and labelled on the bead, β-galactosidase hydrolyses the RGP substrate in the microwell into a fluorescent product that provides the signal for measurement. A single-labelled target molecule results in sufficient fluorescent signal that can be detected and counted by the Simoa^TM optical system. The percentage of bead-containing wells in the array that have a positive signal is proportional to the amount of target or activity present in the sample.
To determine protein concentration, data can be interpolated from a calibration curve using rh LOXL2. For enzyme activity, samples are incubated for at least 30 minutes at room temperature with or without the pan-LOX inhibitor (100 μM BAPN). […]

Oral bioavailability (Oral bioavailability): good oral bioavailability | Inhibition of LOXL2 activity (LOXL2; single oral dose 100 mg, 4 h): 80% | Inhibition of LOXL2 activity (LOXL2; single oral dose 100 mg, 24 h): approximately 20% | Inhibition of LOXL2 activity (LOXL2; single oral dose 200 mg, 4 h): complete inhibition | Inhibition of LOXL2 activity (LOXL2; single oral dose 200 mg, 24 h): 50% | Inhibition of LOXL2 activity (LOXL2; single oral dose 400 mg, 4 h): complete inhibition | Inhibition of LOXL2 activity (LOXL2; single oral dose 400 mg, 24 h): 70% | IC50 (LOXL2; phase 1 samples, n = 210, read-out: Calculated IC50 from correlation of concentration versus % inhibition): 24 nM
Structure (SMILES): CC(C)c1c(Cc2ccc(S(C)(=O)=O)nc2)c2ncccc2n1C/C(F)=C/CN [PXS‐5338]
